Consider 19 molecules from patent US10030016B2 (Sunesis Pharmaceuticals, Inc., priority 2009, dated 2018).

Structures can show the parent of a compound that is named as a salt. Where two headings read alike, the source gives them in different places.

One test addresses PDK1 (Homo sapiens (Human), UniProt O15530). The experiment in a line: PDK1 kinase assay (coupled PDK1/AKT/FAM-crosstide assay, IMAP fluorescence polarization). Format: biochemical. The gist of the method:
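GST-tagged human PDK1 (aa 51-359, 0.75 nM) from insect cells activated unphosphorylated GST-AKT2 (aa 140-467–PIFtide fusion, 10 nM), which phosphorylated 100 nM FAM-crosstide; 40 μM ATP, pH 7.2 Tris/MgCl2, 30 min at 25° C. IMAP fluorescence polarization read-out; ΔmP versus compound concentration fitted with a 4-parameter curve.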
In general terms: Fluorescence polarisation rises when a labelled molecule tumbles more slowly, as on binding a larger partner.

Test [1] concerns phospho-akt (Thr308) in PC-3 cells. The test is described as follows: Inhibition of phospho-akt (Thr308) in PC-3 cells, MSD phospho-akt 308 ELISA kit. To be noted: Homo sapiens, 2 hours, no serum, read-out: EC50. The class given is cell-based. In a few lines:
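Serum-free 2 h compound exposure of overnight-seeded PC-3 cells, threefold dilution series; lysates analysed on blocked MSD plates (3% BSA) for Thr308-phosphorylated Akt, normalised between DMSO and 5 μM wortmannin wells.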
For orientation: In an ELISA, binding on a coated surface is turned into a signal by an enzyme label.

Where [2] appears, read: inhibition of phospo-PDK1 in vitro.
Where [3] appears, read: inhibition of P308 Akt in PC-3 cells, MSD.
Setting [4] is: inhibition of P308 Akt in PC-3 cells using MSD.

Sequence of PDK1 (O15530 51-359): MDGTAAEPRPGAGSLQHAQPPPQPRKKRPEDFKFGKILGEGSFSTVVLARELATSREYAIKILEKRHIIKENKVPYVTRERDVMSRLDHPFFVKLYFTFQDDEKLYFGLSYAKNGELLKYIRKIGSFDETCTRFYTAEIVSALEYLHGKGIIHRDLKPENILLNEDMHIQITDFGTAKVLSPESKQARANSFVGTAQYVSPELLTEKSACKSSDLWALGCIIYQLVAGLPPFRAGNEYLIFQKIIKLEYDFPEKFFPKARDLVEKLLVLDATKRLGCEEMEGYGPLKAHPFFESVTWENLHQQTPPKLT

As for `Cc1nc(C)c(/C=C2\C(=O)Nc3cc(/C=C/CNc4ncccc4C(=O)NCc4ccc(F)c(F)c4)ccc32)[nH]1` [Example 15.14, N-(3,4-Difluoro-benzyl)-2-((E)-3-{3-[1-(2,5-dimethyl-3H-imidazol-4-yl)-meth-(Z)-ylidene]-2-oxo-2,3-dihydro-1H-indol-6-yl}-allylamino)-nicotinamide], the half-inhibitory concentration (IC50) (commonly the concentration that inhibits the measured activity by half) on PDK1 (setting [2]) was < 0.1 µM. Further, the 50% effective concentration (EC50) – broadly, the concentration that produces a half-maximal response – in test [1] (setting [3]) was < 1 µM.
The corresponding values for `CNC(=O)c1cnc(NCc2ccc(-c3ccc4ncnc(N)c4c3)s2)c(C(=O)NCc2ccc(F)c(F)c2)c1` [Example 7.24.3, 2-({[5-(4-aminoquinazolin-6-yl)thiophen-2-yl]methyl}amino)-N^3-(3,4-difluorobenzyl)-N^5-methylpyridine-3,5-dicarboxamide] are < 0.1 µM and < 1 µM.
On to `CNC(=O)c1cc(S(=O)(=O)NCCCN(C)C)cnc1NCc1ccc(-c2ccc3ncnc(N)c3c2)s1` [Example 341], for which, on PDK1 (inhibition of PDK1 in vitro), the concentration for half-maximal inhibition (IC50) was > 5 µM. Besides, the EC50 in test [1] (setting [4]) was > 10 µM.
With `C[C@H](NC(=O)c1nc(C#N)cnc1NCc1ccc(-c2cnc(N)c(CC[C@@H]3CCCN3)n2)cc1)c1ccc(F)c(F)c1` [Example 78, 3-{4-[5-Amino-6-((S)-2-pyrrolidin-2-yl-ethyl)-pyrazin-2-yl]-benzylamino}-6-cyano-pyrazine-2-carboxylic acid [(S)-1-(3,4-difluoro-phenyl)-ethyl]-amide], on PDK1 (inhibition of PDK1 in vitro), the IC50 is < 0.1 µM. In addition, in test [1] (setting [4]), the EC50 is 1 to 10 µM.
Regarding `Nc1ncnc2ccc(-c3ccc(CNc4nccnc4C(=O)Nc4ccc(F)c(F)c4)s3)cc12` [Example 3.72, 3-({[5-(4-aminoquinazolin-6-yl)thiophen-2-yl]methyl}amino)-N-(3,4-difluorophenyl)pyrazine-2-carboxamide (TFA salt)], the half-inhibitory concentration (IC50) against PDK1 (setting [2]) was > 5 µM. The concentration giving a half-maximal response (EC50) in test [1] (setting [3]) is > 10 µM.
In turn, `C[C@H](NC(=O)c1cccnc1NCc1ccc(-c2ccc3ncnc(N)c3c2)s1)c1cccnc1` [Example 3.60, (S)-2-(((5-(4-aminoquinazolin-6-yl)thiophen-2-yl)methyl)amino)-N-(1-(pyridin-3-yl)ethyl) nicotinamide (TFA salt)] registered an IC50 on PDK1 (setting [2]) of 0.1 to 1 µM. The 50% effective concentration (EC50) in test [1] (setting [3]) fell in the range of 1 to 10 µM.
In the same order, the values of `Nc1ncnc2ccc(-c3ccc(CNc4nccnc4C(=O)NCc4cccc(F)c4)s3)cc12` [Example 3.73, 3-({[5-(4-aminoquinazolin-6-yl)thiophen-2-yl]methyl}amino)-N-(3-fluorobenzyl) pyrazine-2-carboxamide (TFA salt)] are < 0.1 µM and 1 to 10 µM.
Consider `Nc1n[nH]c2ncc(-c3ccc(CNc4ncc(C(F)(F)F)cc4C(=O)N[C@@H](CO)c4ccc(F)cc4)cc3)cc12` [Example 308, (R)-2-(4-(3-amino-1H-pyrazolo [3,4-b]pyridin-5-yl)benzylamino)-N-(1-(4-fluorophenyl)-2-hydroxyethyl)-5-(trifluoromethyl)nicotinamide], for which, on PDK1 (inhibition of PDK1 in vitro), the IC50 was < 0.1 µM. For the same molecule, the EC50 in test [1] (setting [4]) is < 1 µM.
In the same order, the values of `Nc1ccc(-c2ccc(CNc3ncc(C(F)(F)F)cc3C(=O)NCc3ccc(F)c(F)c3)cc2)cn1` [Example 370, 2-(4-(6-aminopyridin-3-yl)benzylamino)-N-(3,4-difluorobenzyl)-5-(trifluoro-methyl)nicotinamide] are < 0.1 µM and 1 to 10 µM.
Take `CC(C)(C)Nc1ncnc2ccc(-c3ccc(CNc4ncccc4C(=O)NCc4ccc(F)c(F)c4)s3)cc12` [Example 4.23, N-(3,4-difluorobenzyl)-2-(((5-(4-(tert-butylamino)quinazolin-6-yl)thiophen-2-yl)methyl)amino) nicotinamide]: at PDK1 (setting [2]), the concentration for half-maximal inhibition (IC50) is 1 to 5 µM. Also, the EC50 in test [1] (setting [3]) was > 10 µM.
With `C[C@H](NC(=O)c1cc(C#N)cnc1NCc1ccc(-c2cnc(N)c(F)c2)cc1)c1ccc(F)cc1` [Example 110, (S)-2-(4-(6-amino-5-fluoropyridin-3-yl)benzylamino)-5-cyano-N-(1-(4-fluorophenyl)ethyl)nicotinamide], on PDK1 (inhibition of PDK1 in vitro), the 50% inhibitory concentration (IC50) was < 0.1 µM. The half-maximal effective concentration (EC50) in test [1] (setting [4]) is < 1 µM.
In turn, `CNS(=O)(=O)c1cnc(NCc2ccc(-c3ccc4ncnc(N)c4c3)s2)c(C(=O)N[C@@H](C)c2ccc(F)cc2)c1` [Example 8.7.7, 2-({[5-(4-aminoquinazolin-6-yl)thiophen-2-yl]methyl}amino)-N-[(1S)-1-(4-fluorophenyl)ethyl]-5-(methylsulfamoyl) pyridine-3-carboxamide] returned an IC50 on PDK1 (setting [2]) of 0.1 to 1 µM. For the same molecule, in test [1] (setting [3]), the concentration giving a half-maximal response (EC50) fell in the range of 1 to 10 µM.
For the molecule `C[C@H](NC(=O)c1cc(C#N)cnc1NCc1ccc(-c2cnc(Nc3ccn(C)n3)nc2)cc1)c1ccc(F)cc1` [Example 125, (S)-5-cyano-N-(1-(4-fluorophenyl)ethyl)-2-(4-(2-(1-methyl-1H-pyrazol-3-ylamino)pyrimidin-5-yl)benzylamino) nicotinamide], on PDK1 (inhibition of PDK1 in vitro), the concentration for half-maximal inhibition (IC50) is < 0.1 µM. The EC50 in test [1] (setting [4]) lay within 1 to 10 µM.
In the same order, the values of `C[C@H](NC(=O)c1cc(C#N)cnc1NCc1ccc(-c2cnc3[nH]ncc3c2)nc1)c1ccc(F)cc1` [Example 65, 5-Cyano-N-[(S)-1-(4-fluoro-phenyl)-ethyl]-2-{[6-(1H-pyrazolo[3,4-b]pyridin-5-yl)-pyridin-3-ylmethyl]-amino}-nicotinamide] are < 0.1 µM and < 1 µM.
As to `COCCNC(=O)c1c(C)[nH]c(/C=C2\C(=O)Nc3cc(/C=C/CNc4ncccc4C(=O)NCc4ccc(F)c(F)c4)ccc32)c1C` [Example 15.19, N-(3,4-difluorobenzyl)-2-((E)-3-((Z)-3-((4-(2-methoxyethylcarbamoyl)-3,5-dimethyl-1H-pyrrol-2-yl]-methylene)-2-oxoindolin-6-yl)allylamino) nicotinamide], the concentration for half-maximal inhibition (IC50) on PDK1 (setting [2]) was < 0.1 µM. Also, the EC50 in test [1] (setting [3]) was < 1 µM.
As for `CC(C)Oc1cc(CNc2ncccc2C(=O)N(C)C2CCCCC2)cc(-c2c[nH]c3ncc(C(=O)NC4CC4)cc23)c1` [Example 4.1.6, 3-{3-[({3-[cyclohexyl(methyl)carbamoyl]pyridin-2-yl}amino)methyl]-5-(propan-2-yloxy)phenyl}-N-cyclopropyl-1H-pyrrolo[2,3-b]pyridine-5-carboxamide], the half-maximal inhibitory concentration (IC50) against PDK1 (setting [2]) was > 5 µM. In test [1] (setting [3]), the concentration for a half-maximal effect (EC50) is > 10 µM.
For the molecule `C[C@H](NC(=O)c1cc(C#N)cnc1N[C@H](C)c1ccc(-c2cnc3[nH]nc(N)c3n2)cc1)c1ccc(F)cc1` [Example 435, 2-{(R)-1-[4-(3-Amino-1H-pyrazolo[3,4-b]pyrazin-5-yl)-phenyl]-ethylamino}-5-cyano-N-[(S)-1-(4-fluoro-phenyl)-ethyl]-nicotinamide], at PDK1 (inhibition of PDK1 in vitro), the half-maximal inhibitory concentration (IC50) was < 0.1 µM. Further, in test [1] (setting [4]), the EC50 is < 1 µM.
The corresponding values for `C[C@H](NC(=O)c1cc(C(F)(F)F)cnc1NCc1ccc(-c2cnc3[nH]ncc3c2)cc1)c1ccc(F)c(F)c1` [Example 394, N-[(S)-1-(3,4-Difluoro-phenyl)-ethyl]-2-[4-(1H-pyrazolo [3,4-b]pyridin-5-yl)-benzylamino]-5-trifluoromethyl-nicotinamide] are < 0.1 µM and < 1 µM.
On to `C[C@H](NC(=O)c1cc(C#N)cnc1NCc1ccc(-c2cnc(N)c(O[C@H]3CCNC3)n2)cc1)c1ccc(F)cc1` [Example 162, 2-{4-[5-Amino-6-((S)-pyrrolidin-3-yloxy)-pyrazin-2-yl]-benzylamino}-5-cyano-N-[(S)-1-(4-fluoro-phenyl)-ethyl]-nicotinamide], for which, at PDK1 (inhibition of PDK1 in vitro), the 50% inhibitory concentration (IC50) was < 0.1 µM. Further, the EC50 in test [1] (setting [4]) is < 1 µM.
